Source: publication PMC10119930, “Dual Molecules Targeting 5-HT6 and GABA-A Receptors as a New Approach to Combat Depression Associated with Neuroinflammation” (ACS Chemical Neuroscience, 2023)
Several values for one entry are separate records, joined by “and”; a condition that tells them apart may be missing. Identical values can stand only once.

Tests used:
[1] = Parallel artificial membrane permeability assay (PAMPA); type: in vitro ADME; details: tested at 10^–5 M, PAMPA Plate System Gentest
Method: To estimate the passive transport through cell membranes, we used specialized PAMPA Plate System Gentest acquired from Corning (Tewksbury, MA, USA). The assay was performed as described in the manufacturer’s protocol. The quantitative measurements of tested molecules in apical and basolateral wells were conducted using LC/MS (Waters ACQUITY TQD system with the TQ detector, Milford, USA) and a specific internal standard. The Pe permeability coefficient was calculated rendering the formulas described previously[47],[47] and compared to the reference compound sulpiride.

female Wistar rats = test: Forced swim test in rats; type: in vivo, rat
Method: Naïve female Wistar rats (weighing 180–200 g) were used in the study. The animals were housed in groups of three to four in standard Makrolon cages (37 cm × 21 cm × 15 cm) under strictly controlled laboratory conditions (ambient temperature 21–24 °C, relative humidity 45–65%) with a 12/12 h light–dark regime (light on at 6:00 a.m. and off at 6:00 p.m.). Animals had unrestricted access to tap water and food (typical pellets). Prior the experiment the animals were randomly appointed to the group. The behavioral studies were accomplished between 8:00 a.m. and 5:00 p.m. with the researcher blind to the study. The experiments were performed according to protocols approved by the Local Ethical Committee in Krakow (Approval Number 147/2018), Poland. Housing and experimental procedures were conducted under the European Union Directive of September 22, 2010 (2010/63/EU) and Polish legislation regarding animal studies. All efforts were made to minimize animal suffering and the number of animals used in the study.
Vortioxetine (Sigma, Germany) and the tested compounds (16 and 6) were dissolved in 10% cyclodextrin and administered ip 30 min before the test or during 14 consecutive days, with the last injection 60 min before the test. 10% cyclodextrin was administrated to control group.
A modified forced swim test was carried out according to Detke et al.[50],[51] First, the animals were individually placed inside Plexiglas cylinders, which were 40 cm high and 18 cm in diameter, filled with water at a temperature of 23–25 °C for 15 min. Afterward, the rats were transferred to a Plexiglas box and kept under a 60 W bulb for 30 min to dry. The day after, exactly 24 h later, the rats were once again placed in the cylinder, and their duration of immobility, swimming, and climbing was observed and recorded during a 5 min. The swimming behavior involved energetic movements such as horizontal swimming around the cylinder, while climbing activity referred to upward movements of the forepaws along the swim chamber’s side. Immobility was recorded when the rat only made necessary movements to keep its head above the water. For each test, a fresh water was provided. Open field test in rats: The test was conducted as previously reported by our research group.[52] The test was performed in a darkened room employing the Motor Monitor System (Campden Instruments, Ltd., U.K.). The system was equipped with two SmartFrame Open Field stations, each measuring 40 cm × 40 cm × 38 cm and consisting of 16 × 16 beams. These stations were placed inside sound-attenuating chambers and connected to a PC software using […]. The animals, belonging to either the vehicle-injected or drug-injected group, were individually positioned at the center of the station. The Motor Monitor System, which was automated, recorded the animal’s ambulation in both the X and Y axes, as well as the number of rearing and peeping episodes. Additionally, the total distance traveled by each animal during the 5 min test period was also recorded. Statistical analysis: Results are presented as the mean ± SEM values. They were estimated using one-way analysis of variance (ANOVA), followed by Newman–Keuls post hoc or unpaired two-tailed Student t test. Statistical significance was considered when p < 0.05 for differences between groups.

[2] = test system: human α1β2γ2-GABA-A receptors; test: Electrophysiological studies, automated patch clamp (QPatch16X), HEK293 cells; type: cell-based; details: agonist mode, compound at 10 μM; current amplitude normalized to 10 μM GABA response; ±S.E.M.
[3] = acute, 3 mg/kg ip 30 min before test

Structure (SMILES): Cc1c(OCc2ccccc2)cccc1N1CCN(CCOC(=O)CCCN)CC1.Cl.Cl [Compound 16, 1-(2-((4-Ammoniobutanoyl)oxy)ethyl)-4-(3-(benzyloxy)-2-methylphenyl)piperazin-1-ium Dichloride]
- Papp [1]: 6.24 ×10⁻⁶ cm/s
- duration of swimming (female Wistar rats; [3]): without affecting the duration of swimming
- increase of climbing behaviors vs control group (female Wistar rats; [3]): 336.5%
- reduction of immobility time vs control group (female Wistar rats; [3]): 31.9%
- decrease of immobility time vs vehicle-treated group (female Wistar rats; subchronic, 3 mg/kg ip for 14 days, test 60 min after last injection): 22.9%
- [%] of 10 μM GABA activity [2]: 24.7% and 24.7 ± 1.5%
